# Results published in patent US20260199289A1, “USE OF GLYCOGEN METABOLISM INHIBITORS FOR THE TREATMENT OF CANCER” (THE UNIVERSITY OF VERMONT AND STATE AGRICULTURAL COLLEGE, priority 2022, published 2026).
# Entries after “also recorded” stand apart in the source; their conditions may differ.
# Tests used:
# 8505C cells [1] = assay: SRB cell viability assay in ATC cells; type: cell-based, human; details: for cell viability of CP-treated cells with the exogenous agent: 8505C cells treated with CP-91,149
# Description: In Vitro Cell Staining for Measuring Drug Efficacy—Thyroid cells (4.0×10^3) were seeded in 96 well plates with 100 μl CTM and allowed to adhere overnight. 100 μl of CTM containing 2× concentration of compound was overlayed in each well for 48 hours unless otherwise indicated. Each well then received 100 μl of 10% w/v cold trichloroacetic acid (Fisher) and incubated at 4° C. for 1 hour to fix the cells. Each well was rinsed 3× with DI H2O and stained with 100 μl 0.057% w/v sulforhodamine B (SRB, Sigma-Aldrich) for 30 minutes at room temperature in the dark. Wells were washed 4× with 300 μl 1% v/v acetic acid (Fisher), and remaining SRB stain was solubilized with 200 μl of 10 mM Tris buffer, pH 10.5 (Fisher). Absorbance was measured at 564 nm with a Synergy 2 Multi-Detection Microplate Reader (Agilent Technologies) and normalized to a vehicle control. Drug synergy was evaluated using the coefficient of drug interaction (CDI) formula: CDI=AB/(A×B)×100, where AB is the percent remaining cells of an indicated combination treatment, A is the average percent remaining cells of agent 1 alone, and B is the average percent remaining cells of agent 2 alone. […] Hao et al., “Effect of Lumiracoxib on Proliferation and Apoptosis of Human Nonsmall Cell Lung Cancer Cells In vitro,” Chin Med J (Engl) 121:602-607 (2008), which is hereby incorporated by reference in its entirety. […]
# 8505C cells [2] = assay: Metabolic flux analysis (Seahorse ECAR and OCR); type: cell-based, human; details: 8505C cells
# Description: Metabolic Flux Analysis—Thyroid cells (5.0×10^4) were plated in a 96 well Seahorse culture plate with compounds of interest diluted in 200 μl CTM for 24 hours. Cells were washed with PBS and equilibrated for 1 hour at 37° C. in a non-CO2 incubator with compounds of interest diluted in Seahorse RPMI (supplemented with 11.1 mM glucose, 2 mM glutamine, and 5% serum) before analysis of OCR and ECAR in a Metabolic Flux Analyzer (Seahorse Bioscience, North Billerica, MA 96XP).
# 8505C cells [3] = assay: Reactive oxygen species quantification (H2DCFDA); type: cell-based, human; details: for ROS in CP-treated cells with the exogenous agent: 8505C cells treated with CP-91,149
# Description: Quantification of Reactive Oxygen Species—Thyroid cells (1.0-2.0×10^4) were seeded in a black 96 well plate in 200 μl CTM and allowed to adhere overnight. Wells were washed with PBS and incubated with or without 25 μM H2DCFDA for 45 minutes at 37° C. in a non-CO2 incubator with compounds of interest diluted in phenol-red free RPMI (supplemented with 2 mM glutamine and 10% charcoal-stripped serum). Wells were washed with PBS and received compounds of interest diluted in phenol-red free, supplemented RPMI and incubated at 37° C. in a SpectraMax M4 Microplate Reader (Molecular Devices) to record fluorescent measurements (Ex/Em=485/535 nm) every 15 minutes overnight. Maximum fluorescence intensity was determined (~6 hours), background signal (—H2DCFDA) was subtracted from each group, and corrected values were normalized to the vehicle control.
# 8505C cells [4] = assay: Drug synergy by coefficient of drug interaction (SRB assay); type: cell-based, human; details: for drug interaction with 6-AN (coefficient of drug interaction class): combination with 6-AN (PPP inhibition)
# Description: In Vitro Cell Staining for Measuring Drug Efficacy—Thyroid cells (4.0×10^3) were seeded in 96 well plates with 100 μl CTM and allowed to adhere overnight. 100 μl of CTM containing 2× concentration of compound was overlayed in each well for 48 hours unless otherwise indicated. Each well then received 100 μl of 10% w/v cold trichloroacetic acid (Fisher) and incubated at 4° C. for 1 hour to fix the cells. Each well was rinsed 3× with DI H2O and stained with 100 μl 0.057% w/v sulforhodamine B (SRB, Sigma-Aldrich) for 30 minutes at room temperature in the dark. Wells were washed 4× with 300 μl 1% v/v acetic acid (Fisher), and remaining SRB stain was solubilized with 200 μl of 10 mM Tris buffer, pH 10.5 (Fisher). Absorbance was measured at 564 nm with a Synergy 2 Multi-Detection Microplate Reader (Agilent Technologies) and normalized to a vehicle control. Drug synergy was evaluated using the coefficient of drug interaction (CDI) formula: CDI=AB/(A×B)×100, where AB is the percent remaining cells of an indicated combination treatment, A is the average percent remaining cells of agent 1 alone, and B is the average percent remaining cells of agent 2 alone. […] Hao et al., “Effect of Lumiracoxib on Proliferation and Apoptosis of Human Nonsmall Cell Lung Cancer Cells In vitro,” Chin Med J (Engl) 121:602-607 (2008), which is hereby incorporated by reference in its entirety.
# ATC xenograft = details: cited from earlier work
# [5] = test system: Pancreatic adenocarcinoma cells; details: cited from earlier work
# ATC = details: in vitro; cited from earlier work
# 8505C tumors = assay: 8505C xenograft tumor growth in nude mice; type: in vivo, mouse; details: intraperitoneal, 50 mg/kg CP-91,149, 10 mg/kg sorafenib, 6-7 days a week
# Description: Ethics statement and animal modeling—All animal procedures were approved by Institutional Animal Care and Use Committee (IACUC) at the University of Vermont. All animals were maintained in pathogen-free conditions and cared for in accordance with IACUC policies and certification. All surgeries were performed with isoflurane anesthesia. Temperature-controlled post-surgical monitoring was implemented to minimize suffering. Mice carrying anaplastic thyroid tumors were euthanized at designated time points for tumor collection. Signs of ulceration or a maximum individual tumor size of 2000 mm^3 were used as a protocol-enforced endpoint.
# Mice were given food and water ad libitum. […] These doses were based on previous reports.
# HepG2 cells = details: HepG2 cells; cited from earlier work
# [6] = ATC cell viability, combination with CP-91,149
smiles,measurement,setting,value
"O=CC[C@@H](O)[C@H](O)[C@H](O)CO [2-DG, 2-deoxyglucose]",cell viability with excess (2 mM) pyruvate,"8505C cells [1]; 8505C cells, 48 hours",could be rescued
same,cell viability with excess (25 mM) glucose,"8505C cells [1]; 8505C cells, 48 hours",rescued cell viability
same,cell viability with pyruvate depletion,"8505C cells [1]; 8505C cells, 48 hours",only significantly impacted the 2-DG-treated cells
same,extracellular acidification rate (ECAR),8505C cells [2],significantly inhibited
same,reactive oxygen species (ROS) levels,8505C cells [3]; 8505C ATC cells,only modestly increased ROS levels
same,ROS levels with excess glucose,8505C cells [3]; 8505C cells,only in CP-treated cells
same,drug interaction with 6-AN (coefficient of drug interaction class),"8505C cells [4]; 8505C cells, 48 hours",drug antagonism
same,"CDI values in combination with CP-91,149",8505C cells [4]; [6],~1.0
same,"drug interaction with CP-91,149 (coefficient of drug interaction class)",8505C cells [4]; [6],drug additivity
same,lactate production,ATC xenograft,reduced lactate production
same,tumor size,ATC xenograft,failed to significantly reduce tumor size
"O=C(O)C(=O)CBr [3-BP, 3-bromopyruvic acid]","drug interaction with CP-91,149 (coefficient of drug interaction class)",8505C cells [4]; [6],failed to achieve synergy
"NC(=O)c1ccc(N)nc1 [6-AN, 6-aminonicotinamide]","drug interaction with CP-91,149 (coefficient of drug interaction class)",8505C cells [4]; [6],remarkable drug synergy
"O=C(N[C@@H](Cc1ccc(F)cc1)C(=O)N1CCC(O)CC1)c1cc2cc(Cl)ccc2[nH]1 [CP-320626, 5-chloro-N-[(2S)-3-(4-fluorophenyl)-1-(4-hydroxypiperidin-1-yl)-1-oxopropan-2-yl]-1H-indole-2-carboxamide]",cellular metabolism,[5],"inhibited cellular respiration, the PPP, anaplerosis, and synthesis of ribose and fatty acids"
same,sensitivity of cells,[5],sensitive
CC(=O)N[C@@H](CS)C(=O)O [N-acetylcysteine],cell viability of CP-treated cells with the exogenous agent,8505C cells [1]; listed as N-acetyl cysteine,can rescue ATC cells from CP-mediated loss in cell viability
same,cell viability of CP-treated cells with the exogenous agent,8505C cells [1]; listed as NAC,partially rescued
same,ROS in CP-treated cells with the exogenous agent,8505C cells [3],ablated
same,ROS in CP-treated cells with the exogenous agent,8505C cells [3]; listed as N-acetyl cysteine,attenuated
NC(=O)C1=CN([C@@H]2O[C@H](COP(=O)(O)OP(=O)(O)OC[C@H]3O[C@@H](n4cnc5c(N)ncnc54)[C@H](OP(=O)(O)O)[C@@H]3O)[C@@H](O)[C@H]2O)C=CC1 [NADPH],cell viability of 2-DG-treated cells with the exogenous agent,"8505C cells [1]; 8505C cells treated with 2-DG, 48 hours, replete media",only rescued cell viability in the CP-treated cells
same,cell viability of CP-treated cells with the exogenous agent,8505C cells [1],partially rescued; also recorded: only rescued cell viability in the CP-treated cells; also recorded: can rescue ATC cells from CP-mediated loss in cell viability
same,ROS in 2-DG-treated cells with the exogenous agent,"8505C cells [3]; 8505C cells treated with 2-DG, replete media",reduced ROS in both treatment groups
same,ROS in CP-treated cells with the exogenous agent,8505C cells [3],ablated; also recorded: reduced ROS in both treatment groups; also recorded: attenuated
"Nc1cc(C(F)(F)F)c(-c2cc(N3CCOCC3)nc(N3CCOCC3)n2)cn1 [buparlisib, 5-(2,6-dimorpholin-4-ylpyrimidin-4-yl)-4-(trifluoromethyl)pyridin-2-amine]","drug interaction with CP-91,149 (coefficient of drug interaction class)",8505C cells [4]; [6],drug additivity rather than synergy
COc1cccc2c1C(=O)c1c(O)c3c(c(O)c1C2=O)C[C@@](O)(C(=O)CO)C[C@@H]3O[C@H]1C[C@H](N)[C@H](O)[C@H](C)O1 [doxorubicin],"drug interaction with CP-91,149 (coefficient of drug interaction class)",8505C cells [4]; [6],did not achieve synergy
"COc1cc2nccc(Oc3ccc(NC(=O)NC4CC4)c(Cl)c3)c2cc1C(N)=O [lenvatinib, 4-[3-chloro-4-(cyclopropylcarbamoylamino)phenoxy]-7-methoxyquinoline-6-carboxamide]","drug interaction with CP-91,149 (coefficient of drug interaction class)",8505C cells [4]; [6],drug additivity rather than synergy
CN(C)C(=N)N=C(N)N [metformin],ATC proliferation,ATC,limit ATC proliferation in vitro
"CC(=O)c1c(C)c2cnc(Nc3ccc(N4CCNCC4)cn3)nc2n(C2CCCC2)c1=O [palbociclib, 6-acetyl-8-cyclopentyl-5-methyl-2-[(5-piperazin-1-ylpyridin-2-yl)amino]pyrido[6,5-d]pyrimidin-7-one]","drug interaction with CP-91,149 (coefficient of drug interaction class)",8505C cells [4]; [6],did not achieve synergy
"CNC(=O)c1cc(Oc2ccc(NC(=O)Nc3ccc(Cl)c(C(F)(F)F)c3)cc2)ccn1 [sorafenib, 4-[4-[[4-chloro-3-(trifluoromethyl)phenyl]carbamoylamino]phenoxy]-N-methylpyridine-2-carboxamide]",drug interaction with 6-AN (coefficient of drug interaction class),"8505C cells [4]; 8505C cells, 48 hours",drug synergy; also recorded: synergistic
same,drug interaction with inhibition of glycolysis,"8505C cells [4]; 8505C cells, 48 hours",not glycolysis
same,"drug interaction with CP-91,149 (coefficient of drug interaction class)",8505C cells [4]; [6],high degree of drug synergy; also recorded: profound drug synergy
same,tumor growth,8505C tumors,notably stunted
same,"synergy with CP-91,149",HepG2 cells,displayed synergy
